Experiments:
Type in all cases: cell-based, hamster
BSR.LNL.tdTomato cells [1] = assay: Primary screen for cytosolic delivery of Cre recombinase (tdTomato, fluorescence image analysis); conditions: 250 nM protein, 4 h serum-free media, then 48 h; sortase-conjugated peptide or no peptide
Protocol: FIG. 2. Primary screen for cytosolic delivery of Cre recombinase in BSR.LNL.tdTomato cells. Initial screen of 20 peptide-(+36 GFP)-Cre conjugated proteins. Cytosolic Cre delivery results in recombination and tdTomato expression. The percentage of tdTomato positive cells was determined by fluorescence image analysis. […] Cells were treated with 250 nM protein for 4 hours in serum-free DMEM. Cells were washed and supplanted with full DMEM and incubated for 48 hours. Error bars represent the standard deviation of three independent biological replicates.
The ability of each peptide-(+36 GFP)-Cre recombinase fusion when added to culture media to effect recombination was assayed in BSR.LNL.tdTomato cells, a hamster kidney cell line derived from BHK-21 (FIG. 8). Because Cre recombinase must enter the cell, escape endosomes, enter the nucleus, and catalyze recombination to generate tdTomato fluorescence, this assay reflects the availability of active, non-endosomal recombinase enzyme that reaches the nucleus. […] See, e.g., Dijkstra at al. Biochimica et Biophysica Acta (BBA)-Molecular Cell Research 1984, 804, 58.
The reporter BSR.LNL.tdTomato cells were incubated with 250 nM of each peptide-(+36 GFP)-Cre protein in serum-free media.
BSR.LNL.tdTomato cells were plated at 10,000 cells per well in black 384-well plates (Aurora Biotechnologies). Cells were treated with Cre fusion proteins diluted in serum-free DMEM 24 hours after plating and incubated for 4 hours at 37° C. Following incubation, the cells were washed three times with PBS+20 U/mL heparin. The cells were incubated a further 48 h in serum-containing media. Cells were fixed in 3% paraformaldehyde and stained with Hoescht 33342 nuclear dye. Images were acquired on an ImageXpress Micro automated microscope (Molecular Devices) using a 4× objective (binning 2, gain 2), with laser- and image-based focusing (offset −130 μm, range ±50 μm, step 25 μm). Images were exposed for 10 ms in the DAPI channel (Hoechst) and 500 ms in the dsRed channel (tdTomato). Image analysis was performed using the cell-scoring module of MetaXpress software (Molecular Devices). All nuclei were detected with a minimum width of 1 pixel, maximum width of 3 pixels, and an intensity of 200 gray levels above background. Positive cells were evaluated for uniform signal in the dsRed channel (minimum width of 5 pixels, maximum width of 30 pixels, intensity >200 gray levels above background, 10 μm minimum stained area). In total, nine images were captured and analyzed per well, and 16 wells were treated with the same fusion protein. The primary screen was completed in biological triplicate.

BSR.LNL.tdTomato cells [2] = assay: Cre delivery assay of expressed fusion proteins (tdTomato, flow cytometry)
Protocol: FIGS. 3A-3B. Efficacy and toxicity of recombinant expression fusions of aurein 1.2 (“E”) and citropin 1.3 (“U”). […] The percentage of tdTomato positive cells was determined by flow cytometry. Protein fusions were delivered at 125 nM, 250 nM, 500 nM, and 1 μM. (FIG. 3B) Toxicity of aurein 1.2 and citropin 1.3 as determined by CellTiterGlo (Promega) assay. Protein fusions were delivered at 125 nM, 250 nM, 500 nM, and 1 μM. […] Cells were treated with 250 nM protein for 4 hours in serum-free media. Cells were washed and supplanted with full DMEM and incubated for 48 hours. Error bars represent the standard deviation of three independent biological replicates.
FIGS. 4A-4B. Activity and cytotoxicity of aurein 1.2 variants fused to +36 GFP-Cre. (FIG. 4A) The percentage of tdTomato positive cells was determined by flow cytometry. (FIG. 4B) Toxicity as determined by CellTiterGlo (Promega) assay. […] Cells were treated with 250 nM protein for 4 hours in serum-free DMEM. Cells were washed and supplanted with full DMEM and incubated for 48 hours.
Both aurein 1.2-+36 GFP-Cre and citropin 1.3-+36 GFP-Cre were cloned, expressed, and purified as fusion proteins.
To identify the residues involved in enhancing non-endosomal protein delivery, an alanine scan of the 13 amino acid positions of aurein 1.2 was performed by cloning, expressing, and purifying each alanine mutant of aurein 1.2-+36 GFP-Cre. The resulting fusion proteins were assayed in BSR.LNL.tdTomato reporter cells as described above (Table 2). […] In total, 19 mutants of aurein 1.2 were generated and tested using the Cre recombination assay.
(§1) Uptake and delivery assays for Cre fusion proteins were performed as previously described. Briefly, proteins were diluted in serum-free DMEM and incubated on the cells in 48-well plates for 4 hours at 37° C. Following incubation, the cells were washed three times with PBS+20 U/mL heparin. The cells were incubated a further 48 hours in serum-containing media prior to trypsinization and analysis by flow cytometry. All flow cytometry were carried out on a BD Fortessa flow cytometer (Becton-Dickinson) using 530/30 nm and 610/20 nm filter sets. Toxicity for aurein 1.2 and citropin 1.3 validation assays was determined using CellTiterGlo assay (Promega) in 96-well plates following manufacturer protocol. Toxicity for alanine scan mutational analysis was determined with LIVE/DEAD fixable far-red dead cell stain (Life Technologies) with 635 nm laser and 670/30 nm filter.

BSR.LNL.tdTomato cells [3] = assay: ATP-dependent cell viability assay (CellTiterGlo) 48 h after treatment
Protocol: FIGS. 3A-3B. Efficacy and toxicity of recombinant expression fusions of aurein 1.2 (“E”) and citropin 1.3 (“U”). (FIG. 3A) Cytosolic Cre delivery results in recombination and tdTomato expression. The percentage of tdTomato positive cells was determined by flow cytometry. Protein fusions were delivered at 125 nM, 250 nM, 500 nM, and 1 μM. (FIG. 3B) Toxicity of aurein 1.2 and citropin 1.3 as determined by CellTiterGlo (Promega) assay. Protein fusions were delivered at 125 nM, 250 nM, 500 nM, and 1 μM. […] Cells were treated with 250 nM protein for 4 hours in serum-free media. Cells were washed and supplanted with full DMEM and incubated for 48 hours. Error bars represent the standard deviation of three independent biological replicates.
Next, the toxicity of each fusion protein was evaluated at a range of concentrations (125 nM to 1 μM) using an ATP-dependent cell viability assay at 48 h after treatment. […] Applying 1 μM treatments decreased cell viability to 70% and 66%, respectively (FIG. 3B). In light of its activity and low cytotoxicity at 250 nM, the ability of aurein 1.2 to enhance cytosolic protein delivery was characterized in depth.
as §1

Substance: aurein 1.2-+36 GFP-Cre: fusion protein of aurein 1.2, +36 GFP and Cre recombinase, SEQ ID NO: 77
- cells expressing tdTomato (recombined cells) (BSR.LNL.tdTomato cells [1]): 40%
- recombination signal above that of +36 GFP-Cre (BSR.LNL.tdTomato cells [2]; 250 nM expressed fusion protein): 10.4 fold
- recombination levels higher than that of +36 GFP-Cre alone (BSR.LNL.tdTomato cells [2]; 1 μM expressed fusion protein): 3.8 fold
- viability (BSR.LNL.tdTomato cells [3]; 250 nM recombinant fusion): 87%
- viable cells (BSR.LNL.tdTomato cells [3]; 1 μM treatment): 70%

Source: patent US20180312542A1, “ENDOSOMAL ESCAPE PEPTIDES” (priority 2015, published 2018)
